In patent US6683076B2, “Methods for therapeutic use of glucosylceramide synthesis inhibitors and composition thereof” (Oxford Glyco-Sciences (UK) Ltd, priority 2000, dated 2004):
Where two headings read alike, the source gives them in different places. Marks after values point to notes of the source that are not given here.

Key:
[1] = format: in vivo; conditions: for Weight: NPC-affected cat S222, NB-DNJ treated, measured within 10 days before neuronal assessment
GM2 ganglioside = experiment: Immunocytochemistry with anti-GM2 ganglioside antibodies in cat brain; format: in vivo
Source text: The following sections highlight the histologic and lipid analysis findings for the study animals. As with humans, there is an increased expression of gangliosides in feline NPC neurons. […] There is a corresponding increase in neuronal ganglioside level and histology changes seen in NPC humans.
Immunocytochemical studies with anti-GM2 ganglioside antibodies were used to probe for ganglioside expression in treated vs. untreated cats in a qualitative manner.

NPC^−/− mice = experiment: Mouse model of NPC: symptoms and survival; format: in vivo
Source text: Colonies of mutant mice expressing the NPC phenotype have been described (Pentchev et al., 1984, Miyawaki et al., 1986; Kitagawa, 1987), and has been validated by a number of criteria as an authentic model of the disease (Akaboshi et al., 1997). NPC mice display clinical signs of the disease around 6-8 weeks of age with mild intention tremor and ataxia. […] Death results by 10-12 weeks.
Breeding pairs of mice heterozygous for the mutation causing NPC were used to produce offspring that are NPC^−/− homozygotes. These animals, along with their normal wildtype littermates, were used in the following NB-DNJ drug study. Where indicated, NB-DNJ was administered daily by mixing with ground mouse chow. Mice were PCR genotyped 2-3 weeks of age to determine their genetic background.
[…] NPC^−/− mice, with ages ranging from 3-7 weeks, were entered into a treatment study. Seven were treated with 1200 mg/kg/day and six were untreated. […] By 10 weeks of age, all six untreated NPC^−/− mice died or were sacrificed according to veterinary animal care requirements. In contrast, 4 of 7 NPC^−/− mice treated with NB-DNJ lived into their twelfth week. […] In this experiment, untreated NPC^−/− mice survived 65±1 days (average ±SE; n=6), while NPC^−/− mice treated with NB-DNJ at 1200 mg/kg/day survived 88±4 days (n=7).

[2] = system: domestic cat model of Niemann-Pick C; experiment: Feline model of NPC: neurologic and clinical findings; format: in vivo; design: Front leg Hopping / Rear leg hopping / Vision-Menace: scale not given here; conditions: for Ataxia / Front leg Hopping / Intention tremors / Rear leg hopping / Vision-Menace: NPC-affected cat S222, NB-DNJ treated
Description: A breeding colony for this animal model of NPC is being maintained to study the disease and its potential treatments (Brown et al (1996) J. Inherit Metab. Dis. 19:319-330).
From seven feline NPC carrier litter mates, normal and NPC-affected male and female cats were selected for the study. The affected female and unaffected male began treatment with NB-DNJ at 1200 mg/kg/day. […] During a brief recovery period for these animals, an unrelated normal cat was treated to determine the maximum tolerated dose for NB-DNJ in this species. Based on this dose-ranging work, the NPC-affected and unaffected litter mates were restarted with NB-DNJ at 50 mg/kg/day. Over the following weeks, the administration level was increased to 150 mg/kg/day. […] Except for brief intervals when the treatments were withheld because of transient appetite loss, the NB-DNJ dosages were continued for about three months. On this date, the animals were sacrificed for histologic and lipid analyses.
Cat number: S222; Status: NPC-affected, NB-DNJ-treated; […]; […]. […] […] also was noted to have bilateral luxating patellas at about the same time. […] Over the course of the next 20 weeks, her disease symptoms slowly worsened. However, on several occasions it was noted by the consulting neurologist that her symptoms were less severe than those of S221. […] The following is a tabulation of her neurologic and medical findings:

[3] = NPC-affected cat S222, 100 mg/kg/day

Q: Which Fur colour [1, 3] does the source give for `CCCCN1C[C@H](O)[C@@H](O)[C@H](O)[C@H]1CO` [NB-DNJ, N-butyldeoxynojirimycin] here?
A: Its Fur colour is “light-coloured fur effect”.

Q: And the Tolerability [1, 3]?
A: The Tolerability was “reasonably well handled”.

Q: What about the Appetite ([1]; NPC-affected cat S222, 100 mg/kg/day, relative to normal and NPC-affected cats) of the same compound?
A: The Appetite was “significantly reduced”.

Q: And the Weight ([1]; Week 6.5)?
A: The Weight was 522 gms.

Q: What about the Weight ([1]; Week 12.5) of the same compound?
A: The Weight was 965 gms.

Q: And the Weight ([1]; Week 16)?
A: Its Weight is 1265 gms.

Q: What about the Weight ([1]; Week 18.5) of the same compound?
A: Its Weight is 1390 gms.

Q: And the Weight ([1]; Week 20.5)?
A: Its Weight is 1453 gms.

Q: And the Weight ([1]; Week 22.5)?
A: Its Weight is 1469 gms.

Q: What about the Weight ([1]; Week 24.5) of the same compound?
A: Its Weight is 1495 gms.

Q: What about the Weight ([1]; Week 26.5) of the same compound?
A: Its Weight is 1525 gms.

Q: What about the Weight ([1]; Week 29) of the same compound?
A: Its Weight is 1565 gms.

Q: What about the Weight ([1]; Week 30.5) of the same compound?
A: The Weight was 1590 gms.

Q: What about the Weight ([1]; Week 32.5) of the same compound?
A: Its Weight is 1677 gms.

Q: What about the Hepatotoxicity ([1]; NPC-affected cat S222, starting dose 1200 mg/kg/day) of the same compound?
A: Its Hepatotoxicity is “acutely hepatotoxic”.

Q: And the Hepatotoxicity ([1]; cats, 150 mg/kg/day)?
A: Its Hepatotoxicity is “hepatotoxic”.

Q: And the Hepatotoxicity ([1]; cats, 1200 mg/kg/day)?
A: Its Hepatotoxicity is “acutely hepatotoxic”.

Q: And the “Appetite and overall responsiveness” value ([1]; normal cat S161, 100 mg/kg/day)?
A: The value was “decreased”.

Q: And the Hair colour ([1]; normal cat S218, 100 mg/kg/day)?
A: The Hair colour was “markedly more beige”.

Q: What about the “Serum levels of liver enzymes” value ([1]; normal cat S218, 1200 mg/kg/day) of the same compound?
A: The value was “dramatic elevation”.

Q: What about the Appetite ([1]; normal cat S218, eventual dosage 100 mg/kg/day) of the same compound?
A: Its Appetite is “significantly less than that of a normal cat”.

Q: What about the Hepatotoxicity ([1]; normal cat S218, starting dose 1200 mg/kg/day) of the same compound?
A: Its Hepatotoxicity is “acutely hepatotoxic”.

Q: And the “Weight at the end of the treatment period” value ([1]; normal female cat S218, 100 mg/kg/day, normal female cat expected about 4 kg)?
A: Its value is “about 2.4 kg”.

Q: And the “GM2 immunoreactivity in granular cell layer of cerebellum” value (GM2 ganglioside; NPC cat treated with NB-DNJ)?
A: Its value is “largely devoid of GM2 immunoreactivity”.

Q: What about the “GM2 labeling in Purkinje cells” value (GM2 ganglioside; NPC cat treated with NB-DNJ) of the same compound?
A: Its value is “qualitatively less GM2 labeling”.

Q: What about the “GM2 labeling in the cerebral cortex” value (GM2 ganglioside; NPC cat treated with NB-DNJ, compared to untreated NPC cat) of the same compound?
A: Its value is “qualitatively less severe”.

Q: What about the “Accumulation of glucosylceramide-containing glycolipids (e.g. GM2)” value (GM2 ganglioside; NPC cats) of the same compound?
A: The value was “qualitatively decreases”.

Q: What about the “Symptoms of neurologic degeneration typical for NPC” value (NPC^−/− mice; NPC mice, 1200 mg/kg/day) of the same compound?
A: Its value is “qualitatively delaying”.

Q: And the Increase in longevity (NPC^−/− mice; NPC mice, 1200 mg/kg/day versus untreated)?
A: Its Increase in longevity is 26%.

Q: What about the “Mice displaying symptoms of neurologic effects” value (NPC^−/− mice; NPC^−/− mice, 1200 mg/kg/day in chow, by 8 weeks of age, untreated 5 out of 6) of the same compound?
A: The value was “none”.

Q: What about the “Mice displaying any degree of symptoms” value (NPC^−/− mice; NPC^−/− mice, 1200 mg/kg/day, by 9 weeks of age, untreated all six) of the same compound?
A: Its value is 4 of 7.

Q: And the “Survival (average ±SE)” value (NPC^−/− mice; NPC^−/− mice, 1200 mg/kg/day, n=7, untreated 65±1 days)?
A: Its value is 88 ± 4 days.

Q: What about the “Surviving mice displaying some degree of NPC-induced neural degeneration” value (NPC^−/− mice; NPC^−/− mice, 1200 mg/kg/day, twelfth week) of the same compound?
A: Its value is “Three of these four”.

Q: What about the “Mice that lived into their twelfth week” value (NPC^−/− mice; NPC^−/− mice, 1200 mg/kg/day, all untreated dead by 10 weeks) of the same compound?
A: The value was 4 of 7.

Q: And the “Severity of disease symptoms versus untreated NPC cat S221” value ([2]; NPC-affected cat S222, 100 mg/kg/day, noted by consulting neurologist)?
A: The value was “less severe”.

Q: What about the Ataxia ([2]; Week 6.5) of the same compound?
A: Its Ataxia is “none”.

Q: And the “Front leg Hopping” value ([2]; Week 6.5)?
A: Its value is 2.

Q: What about the Intention tremors ([2]; Week 6.5) of the same compound?
A: Its Intention tremors is “none”.

Q: What about the Rear leg hopping ([2]; Week 6.5) of the same compound?
A: Its Rear leg hopping is 2.

Q: What about the Vision-Menace ([2]; Week 6.5) of the same compound?
A: The Vision-Menace was 2.

Q: What about the Ataxia ([2]; Week 12.5) of the same compound?
A: Its Ataxia is “none”.

Q: What about the “Front leg Hopping” value ([2]; Week 12.5) of the same compound?
A: The value was 2.

Q: What about the Intention tremors ([2]; Week 12.5) of the same compound?
A: Its Intention tremors is “mild”.

Q: And the Vision-Menace ([2]; Week 12.5)?
A: Its Vision-Menace is 1.

Q: And the Rear leg hopping ([2]; Week 12.5, diagnosed with bilateral luxating patellas)?
A: The Rear leg hopping was 2^†.

Q: What about the Ataxia ([2]; Week 16) of the same compound?
A: The Ataxia was “none”.

Q: And the “Front leg Hopping” value ([2]; Week 16)?
A: Its value is 2.

Q: And the Intention tremors ([2]; Week 16)?
A: The Intention tremors was “mild”.

Q: And the Rear leg hopping ([2]; Week 16)?
A: Its Rear leg hopping is 2.

Q: And the Vision-Menace ([2]; Week 16)?
A: Its Vision-Menace is 1.

Q: What about the Ataxia ([2]; Week 18.5) of the same compound?
A: The Ataxia was “none”.

Q: And the “Front leg Hopping” value ([2]; Week 18.5)?
A: Its value is 2.

Q: What about the Intention tremors ([2]; Week 18.5) of the same compound?
A: Its Intention tremors is “mild”.

Q: And the Rear leg hopping ([2]; Week 18.5)?
A: The Rear leg hopping was 1.5.

Q: What about the Vision-Menace ([2]; Week 18.5) of the same compound?
A: The Vision-Menace was 1.5.

Q: And the Ataxia ([2]; Week 20.5)?
A: The Ataxia was “none”.

Q: And the “Front leg Hopping” value ([2]; Week 20.5)?
A: Its value is 2.

Q: What about the Intention tremors ([2]; Week 20.5) of the same compound?
A: Its Intention tremors is “mod”.

Q: And the Rear leg hopping ([2]; Week 20.5)?
A: The Rear leg hopping was 2.

Q: And the Vision-Menace ([2]; Week 20.5)?
A: Its Vision-Menace is “.5”.

Q: And the Ataxia ([2]; Week 22.5)?
A: Its Ataxia is “none”.

Q: And the “Front leg Hopping” value ([2]; Week 22.5)?
A: Its value is 1.5.

Q: What about the Intention tremors ([2]; Week 22.5) of the same compound?
A: The Intention tremors was “mild”.

Q: What about the Rear leg hopping ([2]; Week 22.5) of the same compound?
A: Its Rear leg hopping is 1.5.

Q: What about the Vision-Menace ([2]; Week 22.5) of the same compound?
A: The Vision-Menace was 1.

Q: What about the Ataxia ([2]; Week 24.5) of the same compound?
A: The Ataxia was “none”.

Q: What about the “Front leg Hopping” value ([2]; Week 24.5) of the same compound?
A: The value was 2.

Q: What about the Intention tremors ([2]; Week 24.5) of the same compound?
A: The Intention tremors was “mod”.

Q: What about the Rear leg hopping ([2]; Week 24.5) of the same compound?
A: Its Rear leg hopping is 2.

Q: What about the Vision-Menace ([2]; Week 24.5) of the same compound?
A: The Vision-Menace was 1.

Q: What about the Ataxia ([2]; Week 26.5) of the same compound?
A: Its Ataxia is “none”.

Q: And the “Front leg Hopping” value ([2]; Week 26.5)?
A: The value was 2.

Q: What about the Intention tremors ([2]; Week 26.5) of the same compound?
A: The Intention tremors was “mild”.

Q: What about the Rear leg hopping ([2]; Week 26.5) of the same compound?
A: Its Rear leg hopping is 1.5.

Q: What about the Vision-Menace ([2]; Week 26.5) of the same compound?
A: The Vision-Menace was 1.

Q: What about the Ataxia ([2]; Week 29) of the same compound?
A: Its Ataxia is “mod”.

Q: And the “Front leg Hopping” value ([2]; Week 29)?
A: Its value is 2.

Q: And the Intention tremors ([2]; Week 29)?
A: The Intention tremors was “mod”.

Q: And the Rear leg hopping ([2]; Week 29)?
A: The Rear leg hopping was 1.

Q: And the Vision-Menace ([2]; Week 29)?
A: Its Vision-Menace is 1.

Q: What about the Ataxia ([2]; Week 30.5) of the same compound?
A: The Ataxia was “mild”.

Q: What about the Intention tremors ([2]; Week 30.5) of the same compound?
A: Its Intention tremors is “mod”.

Q: What about the Vision-Menace ([2]; Week 30.5) of the same compound?
A: The Vision-Menace was 1.

Q: And the Ataxia ([2]; Week 32.5)?
A: The Ataxia was “mod”.

Q: What about the “Front leg Hopping” value ([2]; Week 32.5) of the same compound?
A: Its value is 1.

Q: What about the Intention tremors ([2]; Week 32.5) of the same compound?
A: The Intention tremors was “mod”.

Q: And the Rear leg hopping ([2]; Week 32.5)?
A: The Rear leg hopping was 1.

Q: And the Vision-Menace ([2]; Week 32.5)?
A: Its Vision-Menace is 0.5.

Q: And the “Symptoms of neurologic degeneration typical for NPC” value ([2]; cats, NB-DNJ treatment)?
A: The value was “qualitatively delays”.
